Inconclusive results and toxic doses are left out.
Tested on: P388 leukemia ip, CD2F1 mice, survival T/C
Experiment: NCI In Vivo Anticancer Drug Screen. Data for tumor model P388 Leukemia (intraperitoneal) in CD2F1 (CDF1) mice
Conditions: endpoint: median survival time, higher = longer survival
In short: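 Mice carrying the transplanted tumor received test compound or vehicle. Survival was recorded in each group, and the value is the treated-group measurement divided by that of the vehicle-treated control group.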

[1] = dose: 50.0 mg/kg/injection, schedule: Q01DX005 (ip), vehicle: Klucel (hydroxypropylcellulose) (HPC)
[2] = dose: 100.0 mg/kg/injection, schedule: Q01DX005 (ip), vehicle: Klucel (hydroxypropylcellulose) (HPC)
[3] = dose: 200.0 mg/kg/injection, schedule: Q01DX005 (ip), vehicle: Klucel (hydroxypropylcellulose) (HPC)
[4] = dose: 50.0 mg/kg/injection, schedule: Q01DX005 (ip), vehicle: saline with Tween-80
[5] = dose: 100.0 mg/kg/injection, schedule: Q01DX005 (ip), vehicle: saline with Tween-80
[6] = dose: 200.0 mg/kg/injection, schedule: Q01DX005 (ip), vehicle: saline with Tween-80
[7] = dose: 25.0 mg/kg/injection, schedule: Q01DX009 (ip), vehicle: other
[8] = dose: 50.0 mg/kg/injection, schedule: Q01DX009 (ip), vehicle: other
[9] = dose: 100.0 mg/kg/injection, schedule: Q01DX009 (ip), vehicle: other

For O=C(/C=C/c1cn(C(=O)CCCl)c2ccccc12)c1cccc([N+](=O)[O-])c1, the T/C (dose: 60.0 mg/kg/injection, schedule: Q01DX005 (ip), vehicle: saline with Tween-80) was 99 % of control, the T/C (dose: 120.0 mg/kg/injection, schedule: Q01DX005 (ip), vehicle: saline with Tween-80) was 96 % of control and the T/C (dose: 240.0 mg/kg/injection, schedule: Q01DX005 (ip), vehicle: saline with Tween-80) was 89 % of control.

For OCC(O)c1c(-c2ccc(Cl)cc2)c(-c2ccccc2)c2n1CCC2 (stereo not drawn), the T/C [1] was 97 % of control, the T/C [2] was 100 % of control and the T/C [3] was 90 % of control.

In the case of CCOC(=O)c1c(-c2ccccc2)csc1NC(=O)CN1CCCCC1, the T/C [4] is reported as 98 % of control, the T/C [5] is reported as 114 % of control and the T/C [6] is reported as 113 % of control.

With CCCCC(CC)C(=O)OC(C)CN(CC(C)OC(=O)C(CC)CCCC)C(=O)C(C)OC(=O)C(CC)CCCC (stereo not drawn) the T/C [4] was 103 % of control, the T/C [5] was 96 % of control and the T/C [6] was 103 % of control.

CCS(=O)(=O)c1ccc(N2C(N)=NC(N)=NC2(C)C)cc1 was tested, and the T/C (dose: 6.25 mg/kg/injection, schedule: Q01DX005 (ip), vehicle: saline with Tween-80) was 103 % of control, the T/C (dose: 12.5 mg/kg/injection, schedule: Q01DX005 (ip), vehicle: saline with Tween-80) was 100 % of control and the T/C (dose: 25.0 mg/kg/injection, schedule: Q01DX005 (ip), vehicle: saline with Tween-80) was 103 % of control.

In the case of O=C(NC(Cc1ccccc1)C(=O)O)c1ccc([N+](=O)[O-])cc1 (stereo not drawn), the T/C [7] is reported as 97 % of control, the T/C [8] is reported as 89 % of control and the T/C [9] is reported as 104 % of control.

CC(CCOCCCBr)OC(=O)CCOCCC(=O)OC(C)CCOCCCBr (stereo not drawn) was tested, and the T/C [1] was 100 % of control, the T/C [2] was 98 % of control and the T/C [3] was 100 % of control.

With CC1(CC(C)(C)C2CCCCC2)OCCO1 the T/C (dose: 6.25 mg/kg/injection, schedule: Q01DX009 (ip), vehicle: water) was 104 % of control, the T/C (dose: 12.5 mg/kg/injection, schedule: Q01DX009 (ip), vehicle: water) was 108 % of control and the T/C (dose: 25.0 mg/kg/injection, schedule: Q01DX009 (ip), vehicle: water) was 107 % of control. The T/C (dose: 50.0 mg/kg/injection, schedule: Q01DX009 (ip), vehicle: water) was 109 % of control and the T/C (dose: 100.0 mg/kg/injection, schedule: Q01DX009 (ip), vehicle: water) was 90 % of control.

In the case of CP(=O)(N/N=C\C(=O)O)c1ccccc1 (stereo not drawn), the T/C (dose: 12.5 mg/kg/injection, schedule: Q01DX009 (ip), vehicle: other) is reported as 99 % of control, the T/C [7] is reported as 91 % of control and the T/C [8] is reported as 100 % of control. For the same compound, the T/C [9] was 97 % of control, the T/C (dose: 200.0 mg/kg/injection, schedule: Q01DX009 (ip), vehicle: other) was 98 % of control and the T/C (dose: 400.0 mg/kg/injection, schedule: Q01DX009 (ip), vehicle: other) was 97 % of control.

Cc1ccccc1-c1nc2c(N)nc(N)nc2nc1N was tested, and the T/C (dose: 100.0 mg/kg/injection, schedule: Q04DX003 (ip), vehicle: saline with Tween-80) was 109 % of control, the T/C (dose: 200.0 mg/kg/injection, schedule: Q01DX009 (ip), vehicle: saline with Tween-80) was 172 % of control and the T/C (dose: 200.0 mg/kg/injection, schedule: Q04DX003 (ip), vehicle: saline with Tween-80) was 109 % of control. The T/C (dose: 264.0 mg/kg/injection, schedule: Q04DX003 (ip), vehicle: saline with Tween-80) was 113 % of control, the T/C (dose: 300.0 mg/kg/injection, schedule: Q01DX009 (ip), vehicle: saline with Tween-80) was 109 % of control and the T/C (dose: 400.0 mg/kg/injection, schedule: Q04DX003 (ip), vehicle: saline with Tween-80) was 113 % of control.

For COC1CC(OC2CCC3(C)C(=CCC4C3C(OC(C)=O)C(OC(=O)CC(C)C)C3(C)C(C(C)=O)CCC43O)C2)OC(C)C1OC1CC(OC)C(OC2CC(OC)C(OC3OC(C)C(O)C(OC)C3O)C(C)O2)C(C)O1 (stereo not drawn), the T/C (dose: 4.13 mg/kg/injection, schedule: Q01DX005 (ip), vehicle: Klucel (hydroxypropylcellulose) (HPC)) was 87 % of control and the T/C (dose: 8.25 mg/kg/injection, schedule: Q01DX005 (ip), vehicle: Klucel (hydroxypropylcellulose) (HPC)) was 101 % of control.

For CC(=O)Nc1ccc(SSc2ccc(NC(C)=O)s2)s1, the T/C (dose: 50.0 mg/kg/injection, schedule: Q01DX001 (ip), vehicle: saline with Tween-80) was 86 % of control, the T/C (dose: 200.0 mg/kg/injection, schedule: Q01DX001 (ip), vehicle: saline with Tween-80) was 90 % of control and the T/C (dose: 400.0 mg/kg/injection, schedule: Q01DX001 (ip), vehicle: saline with Tween-80) was 97 % of control.

— PubChem BioAssay AID330 (DTP/NCI, 2004)
